In patent publication US9624241B2 (Incyte Corporation, priority 2013, dated 2017) one finds IC50 data, which are given here for 22 compounds.

SMILES strings stand for the structures. Where two headings read alike, the source gives them in different places.

Experiment [1] has as its target BRD4-BD1 (Homo sapiens (Human), UniProt O60885). The experiment is described as follows: BRD4 AlphaScreen Assay (Example A2), BRD4-BD1. The settings on record: read-out: BRD4 BD-1 enzyme IC50. Format: binding. As for the experimental part: (§1) BRD4-BD1 and BRD4-BD2 assays were conducted in white 384-well polystyrene plate in a final volume of 40 μL for BD1 and 60 μL for BD2. Inhibitors were first serially diluted in DMSO and added to the plate wells before the addition of other reaction components. […] The assays were carried out at room temperature in the assay buffer (50 mM Tris-HCl, pH 7.5, 0.01% Tween-20, 0.01% BSA, 5 mM DTT), containing 50 nM Biotin-labeled tetra-acetylated histone H4 peptide (H4Ac4) and BRD4-BD1 or BRD4-BD2 protein at concentration less than 1 nM. […] After plate sealing, the plate was incubated in the dark at room temperature for 75 min. before reading on a PHERAstar FS plate reader (BMG Labtech). IC50 determination was performed by fitting the curve of percent control activity versus the log of the inhibitor concentration using the GraphPad Prism 5.0 software.

Experiment [2] has as its target BRD4-BD2 (Homo sapiens (Human), UniProt O60885). Description: BRD4 AlphaScreen Assay (Example A2), BRD4-BD2. The settings on record: read-out: BRD4 BD-2 enzyme IC50. Format: binding. How it is done:
as §1

Where [3] appears, read: Assay A2, AlphaScreen, BRD4-BD1.
[4] abbreviates: Assay A2, AlphaScreen, BRD4-BD2.

As to `Cc1noc(C)c1-c1cc(Br)c2[nH]c(=O)n3c2c1OCC3c1ccccn1` (single isomer, unassigned) [Example 267B, 9-bromo-7-(3,5-dimethylisoxazol-4-yl)-4-pyridin-2-yl-4,5-dihydroimidazo[1,5,4-de][1,4]benzoxazin-2(1H)-one], the IC50 in experiment [1] (setting [3]) and in experiment [2] (setting [4]) was less than 100 nM in each case.

As to `Cc1noc(C)c1-c1ccc2nc(C3CCN(C(=O)OC(C)(C)C)C3)n3c2c1OC[C@@H]3c1ccccn1` (single isomer, unassigned; diastereoisomer 1) [Example 101A], the IC50 in experiment [1] (setting [3]) and in experiment [2] (setting [4]) was less than 100 nM throughout.

With `Cc1noc(C)c1-c1ccc2nc(C3CCN(C(=O)OC(C)(C)C)C3)n3c2c1OC[C@@H]3c1ccccn1` (single isomer, unassigned; diastereoisomer 2) [Example 101B], the IC50 in experiment [1] (setting [3]) and in experiment [2] (setting [4]) was less than 100 nM throughout.

For `Cc1noc(C)c1-c1ccc2nc(C3CCNC3)n3c2c1OC[C@@H]3c1ccccn1` (single isomer, unassigned; diastereomer 1) [Example 106A], the IC50 in experiment [1] (setting [3]) and in experiment [2] (setting [4]) was less than 100 nM each time.

As for `CC(=O)N1CCC(c2nc3ccc(-c4c(C)noc4C)c4c3n2[C@@H](c2ccccn2)CO4)C1` (single isomer, unassigned; diastereomer 1) [Example 113A], the IC50 in experiment [1] (setting [3]) and in experiment [2] (setting [4]) was less than 100 nM in each case.

With `Cc1noc(C)c1-c1ccc2nc(C3CCN(C(=O)C4CC4)C3)n3c2c1OC[C@@H]3c1ccccn1` (single isomer, unassigned; diastereomer 1) [Example 114A], the IC50 in experiment [1] (setting [3]) and in experiment [2] (setting [4]) was less than 100 nM each time.

As to `Cc1noc(C)c1-c1ccc2nc(C3CCNC3)n3c2c1OC[C@@H]3c1ccccn1` (single isomer, unassigned; diastereomer 2) [Example 106B], the IC50 in experiment [1] (setting [3]) and in experiment [2] (setting [4]) was less than 100 nM each time.

With `CC(=O)N1CCC(c2nc3ccc(-c4c(C)noc4C)c4c3n2[C@@H](c2ccccn2)CO4)C1` (single isomer, unassigned; diastereomer 2) [Example 113B], the IC50 in experiment [1] (setting [3]) and in experiment [2] (setting [4]) was less than 100 nM each time.

For the compound `Cc1noc(C)c1-c1ccc2[nH]c(=O)n3c2c1OCC3c1cccc[n+]1[O-]` (centres unmarked) [Example 16, 7-(3,5-Dimethylisoxazol-4-yl)-4-(1-oxidopyridin-2-yl)-4,5-dihydroimidazo[1,5,4-de][1,4]benzoxazin-2(1H)-one], the IC50 in experiment [1] (setting [3]) and in experiment [2] (setting [4]) was less than 100 nM each time.

Turning to `Cc1noc(C)c1-c1ccc2[nH]c(=O)n3c2c1OCC3c1ccc(F)cn1` (centres unmarked) [Example 19, 7-(3,5-Dimethylisoxazol-4-yl)-4-(5-fluoropyridin-2-yl)-4,5-dihydroimidazo[1,5,4-de][1,4]benzoxazin-2(1H)-one], the IC50 in experiment [1] (setting [3]) and in experiment [2] (setting [4]) was less than 100 nM throughout.

Turning to `Cc1noc(C)c1-c1cc(C#N)c2[nH]c(=O)n3c2c1OCC3c1ccccc1` (centres unmarked) [Example 42, 7-(3,5-Dimethylisoxazol-4-yl)-2-oxo-4-phenyl-1,2,4,5-tetrahydroimidazo[1,5,4-de][1,4]benzoxazine-9-carbonitrile], the IC50 in experiment [1] (setting [3]) and in experiment [2] (setting [4]) was less than 100 nM throughout.

Regarding `Cc1noc(C)c1-c1cc(-c2ccccc2)c2[nH]c(=O)n3c2c1OCC3c1ccccc1` (centres unmarked) [Example 43, 7-(3,5-Dimethylisoxazol-4-yl)-4,9-diphenyl-4,5-dihydroimidazo[1,5,4-de][1,4]benzoxazin-2(1H)-one], the IC50 in experiment [1] (setting [3]) and in experiment [2] (setting [4]) was less than 100 nM in each case.

Turning to `Cc1cnn(C)c1-c1ccc2[nH]c(=O)n3c2c1OCC3c1ccccn1` (centres unmarked) [Example 44, 7-(1,4-Dimethyl-1H-pyrazol-5-yl)-4-pyridin-2-yl-4,5-dihydroimidazo[1,5,4-de][1,4]benzoxazin-2(1H)-one], the IC50 in experiment [1] (setting [3]) is 1000 to 10000 nM; in experiment [2] (setting [4]), 100 to 1000 nM.

For `Cc1noc(C)c1-c1cc(Br)c2[nH]c(=O)n3c2c1OCC3c1ccccc1` (centres unmarked) [Example 45, 9-Bromo-7-(3,5-Dimethylisoxazol-4-yl)-4-phenyl-4,5-dihydroimidazo[1,5,4-de][1,4]benzoxazin-2(1H)-one], the IC50 in experiment [1] (setting [3]) and in experiment [2] (setting [4]) was less than 100 nM each time.

For `Cc1noc(C)c1-c1cc(C)c2[nH]c(=O)n3c2c1OCC3c1ccccc1` (centres unmarked) [Example 46, 7-(3,5-Dimethylisoxazol-4-yl)-9-methyl-4-phenyl-4,5-dihydroimidazo[1,5,4-de][1,4]benzoxazin-2(1H)-one], the IC50 in experiment [1] (setting [3]) and in experiment [2] (setting [4]) was less than 100 nM throughout.

Turning to `Cc1noc(C)c1-c1cc(-c2cccnc2)c2[nH]c(=O)n3c2c1OCC3c1ccccc1` (centres unmarked) [Example 52, 7-(3,5-Dimethylisoxazol-4-yl)-4-phenyl-9-pyridin-3-yl-4,5-dihydroimidazo[1,5,4-de][1,4]benzoxazin-2(1H)-one], the IC50 in experiment [1] (setting [3]) and in experiment [2] (setting [4]) was less than 100 nM throughout.

Regarding `Cc1noc(C)c1-c1ccc2[nH]c(=O)n3c2c1OCC3(C)c1ccccn1` (centres unmarked) [Example 69, 7-(3,5-Dimethylisoxazol-4-yl)-4-methyl-4-pyridin-2-yl-4,5-dihydroimidazo[1,5,4-de][1,4]benzoxazin-2(1H)-one], the IC50 in experiment [1] (setting [3]) and in experiment [2] (setting [4]) was less than 100 nM throughout.

Regarding `CCC1(c2ccccn2)COc2c(-c3c(C)noc3C)ccc3[nH]c(=O)n1c23` (centres unmarked) [Example 70, 7-(3,5-Dimethylisoxazol-4-yl)-4-ethyl-4-pyridin-2-yl-4,5-dihydroimidazo[1,5,4-de][1,4]benzoxazin-2(1H)-one 2,2,2-trifluoroacetate], the IC50 in experiment [1] and in experiment [2] was less than 100 nM throughout.

For the compound `CNC(=O)C1(c2ccccn2)COc2c(-c3c(C)noc3C)ccc3[nH]c(=O)n1c23` (centres unmarked) [Example 71, 7-(3,5-Dimethylisoxazol-4-yl)-N-methyl-2-oxo-4-pyridin-2-yl-1,2,4,5-tetrahydroimidazo[1,5,4-de][1,4]benzoxazine-4-carboxamide 2,2,2-trifluoroacetate], the IC50 was 100 to 1000 nM in experiment [1] (setting [3]) and less than 100 nM in experiment [2].

`Cc1noc(C)c1-c1ccc2[nH]c(=O)n3c2c1OCC3(CN)c1ccccn1` (centres unmarked) [Example 73, 4-(Aminomethyl)-7-(3,5-dimethylisoxazol-4-yl)-4-pyridin-2-yl-4,5-dihydroimidazo[1,5,4-de][1,4]benzoxazin-2(1H)-one bis(2,2,2-trifluoroacetate)]: the IC50 is 100 to 1000 nM in experiment [1] (setting [3]) and less than 100 nM in experiment [2] (setting [4]).

`Cc1noc(C)c1-c1ccc2[nH]c(=O)n3c2c1OCC3(C(N)=O)c1ccccn1` (centres unmarked) [Example 74, 7-(3,5-Dimethylisoxazol-4-yl)-2-oxo-4-pyridin-2-yl-1,2,4,5-tetrahydroimidazo[1,5,4-de][1,4]benzoxazine-4-carboxamide 2,2,2-trifluoroacetate]: the IC50 in experiment [1] (setting [3]) is 100 to 1000 nM; in experiment [2] (setting [4]), less than 100 nM.

`Cc1noc(C)c1-c1ccc2[nH]c(=O)n3c2c1OC(C)C3c1ccccn1` (centres unmarked) [Example 75, 7-(3,5-dimethylisoxazol-4-yl)-5-methyl-4-pyridin-2-yl-4,5-dihydroimidazo[1,5,4-de][1,4]benzoxazin-2(1H)-one]: the IC50 in experiment [1] (setting [3]) and in experiment [2] (setting [4]) was less than 100 nM each time.
